From patent US9456995B2, “Methods for inhibition of BNIP3 and prevention and treatment of ischemia reperfusion injury by tetra-O-methyl nordihydroguaiaretic acid” (THE JOHNS HOPKINS UNIVERSITY, priority 2012, dated 2016)

Key:
BNIP3 [1] = experiment: BNIP3 expression in human cancer cells (LNCaP, PC3, MCF-7, HepG2); type: cell-based
BNIP3 [2] = experiment: BNIP3 expression by western blotting in HL-1 cells under hypoxia; type: cell-based, mouse; settings: M4N at 10-40 μM; hypoxia for 6 hours then normoxia for 18 hours; FIG. 3
Description: Cell Culture. HL-1 mouse heart cell line was a kind gift from Dr. Claycomb (LSU Health Science Centers, New Orleans La.) (Proc. Natl. Acad. Sci. U.S.A., 95: 2979-84 (1998)). HL-1 cells were cultured in Claycomb medium (Sigma, Saint Louis, Mo.) supplemented with FBS (10%), Norepinephrine (0.1 mM), L-Glutamine (2 mM), penicillin (100 units/ml) and streptomycin (100 μg/ml). Drugs were dissolved in dimethyl sulfoxide at the final concentrations in the medium less than 0.1%. When the cells were indicated to be cultured under hypoxic conditions, the cells were incubated at the oxygen concentration of 0.5% in the hypoxic chamber (BioSpherix Ltd, Lacona, N.Y.). Western blotting. After cells had been grown in […] flasks and treated with reagents, the cells were washed with PBS (−) three times and suspended in RIPA buffer (150 mM NaCl, 50 mM Tris-HCl (pH 8.0), 0.1% SDS, 1% NP40, and 0.5% deoxycholate) supplemented with protease inhibitor cocktail (Calbiochem, San Diego, Calif.). The sample volumes were adjusted by the total protein amount. Protein assay was performed by Bio-Rad Protein Assay (Bio-Rad Laboratories, Inc. Hercules, Calif.). […] The signals were detected by western blot chemiluminescence reagent plus (New England Nuclear Life Science Products, Boston, Mass.). […]

HL-1 mouse heart cells [3] = experiment: TUNEL assay of cell death induced by hypoxia in HL-1 cells; type: cell-based; settings: M4N at 5-20 μM; 6 hour hypoxia (0.5% oxygen) followed with 18 hour normoxia; FIG. 1
Description: Cell Culture. HL-1 mouse heart cell line was a kind gift from Dr. Claycomb (LSU Health Science Centers, New Orleans La.) (Proc. Natl. Acad. Sci. U.S.A., 95: 2979-84 (1998)). HL-1 cells were cultured in Claycomb medium (Sigma, Saint Louis, Mo.) supplemented with FBS (10%), Norepinephrine (0.1 mM), L-Glutamine (2 mM), penicillin (100 units/ml) and streptomycin (100 μg/ml). Drugs were dissolved in dimethyl sulfoxide at the final concentrations in the medium less than 0.1%. When the cells were indicated to be cultured under hypoxic conditions, the cells were incubated at the oxygen concentration of 0.5% in the hypoxic chamber (BioSpherix Ltd, Lacona, N.Y.). Cell death assay. Terminal deoxynucleotidyl transferase dUTP nick end labeling (TUNEL) assay was conducted by using TUNEL apoptosis detection kits (Upstate, Temecula, Calif.), with some modifications. The cells were cultured in 12-well microwell culture dishes (Corning Inc., Corning, N.Y.). After the treatment, both the cells floating in the tissue culture medium and those attached to the bottoms of wells were collected together into plastic tubes. […] For the hypoxia treatment the cells were cultured under 0.5% oxygen concentration in a hypoxic chamber for 6 hours and returned the cells back to normoxic condition in a normal culture chamber, and then cell death was measured 18 hours later. […]

[4] = numerous clinical trials as an anticancer drug; cited from earlier work
HL-1 mouse heart cells [5] = experiment: UCN-01-induced cell death in HL-1 cells, Trypan blue exclusion assay; type: cell-based; settings: M4N around 20 μM; UCN-01 (0.2 μM) for 24 hours; FIG. 4
Description: FIG. 4 depicts the effect of M4N on cell death induced by UCN-01 treatment in HL-1 mouse heart cells. The cells were treated with M4N followed with UCN-01 (0.2 μM) treatment for 24 hours. The cell death was measured with Trypan Blue exclusion assay. The asterisk indicates a statistically significant difference by t-test at the error rate of less than 2%. For the Trypan blue exclusion assay, the cells were washed with PBS (−) once and resuspended in PBS (−) again. One part of the resuspended cell solution was mixed with one part of 0.4% Trypan blue solution (Sigma). In about 5 to 15 minutes the numbers of both the cells without staining and the cells with staining were counted. The percentages of the number of the cells with staining to the total cell number (which equals to the number of the cells with staining and that of the cells without staining) were calculated. Effect of M4N on UCN-01-inducing cell death. Next, the effect of M4N on the cell death induced by UCN-01, an anticancer drug, in HL-1 cells (FIG. 4) was examined.

[6] = test system: mitochondrial permeability transition pore (mPTP); experiment: Mitochondrial permeability transition pore (mPTP) openings by confocal microscopy in HL-1 cells; type: cell-based, mouse; settings: M4N at 5-20 μM, hypoxia 6 hours then normoxia 8 hours, data not shown
Description: Measurement of mitochondrial permeability transition pore (mPTP) openings. The mPTP was measured by Image-iT LIVE Mitochondria Transition Pore Assay Kit (Molecular Probes, Eugene Oreg.). The cells were first washed with Hank's Balanced Salt Solution (HBSS) with sodium bicarbonate, calcium, and magnesium that also included HEPES (10 mM), L-glutamine (2 mM) and succinate (100 μM) to support healthy mitochondrial function (modified HBSS). The cells were then labeled with calcein-AM (1.0 μM) and MitoTracker Red CMSRos dye ([…]) in modified HBSS with […] CoCl2 for 15 minutes. After the medium was changed to the normal HL-1 culture medium, the cells were treated with M4N at various concentrations (0, 5, 10, 20, 40, and 80 μM). The cells were incubated under hypoxia for 6 hours, followed with under normoxia for 8 hours. After the cells were washed with modified HBSS, they were examined by B29/Zeiss LSM 510 META laser confocal microscope (Carl Zeiss, Jena, Germany) for calcein at FITC settings and for MitoTracker at rhodamine settings.

LNCAP cells = experiment: Mitochondrial metabolism and membrane potential in LNCaP cells; type: cell-based, human; settings: data not shown
HL-1 mouse heart cells [7] = experiment: Trypan blue exclusion assay of cell death under hypoxia or normoxia in HL-1 cells; type: cell-based; settings: M4N at 20 μM, FIG. 2
Description: Cell Culture. HL-1 mouse heart cell line was a kind gift from Dr. Claycomb (LSU Health Science Centers, New Orleans La.) (Proc. Natl. Acad. Sci. U.S.A., 95: 2979-84 (1998)). HL-1 cells were cultured in Claycomb medium (Sigma, Saint Louis, Mo.) supplemented with FBS (10%), Norepinephrine (0.1 mM), L-Glutamine (2 mM), penicillin (100 units/ml) and streptomycin (100 μg/ml). Drugs were dissolved in dimethyl sulfoxide at the final concentrations in the medium less than 0.1%. When the cells were indicated to be cultured under hypoxic conditions, the cells were incubated at the oxygen concentration of 0.5% in the hypoxic chamber (BioSpherix Ltd, Lacona, N.Y.). For the Trypan blue exclusion assay, the cells were washed with PBS (−) once and resuspended in PBS (−) again. […] In about 5 to 15 minutes the numbers of both the cells without staining and the cells with staining were counted. The percentages of the number of the cells with staining to the total cell number (which equals to the number of the cells with staining and that of the cells without staining) were calculated. […] For the hypoxia treatment the cells were cultured under 0.5% oxygen concentration in a hypoxic chamber for 6 hours and returned the cells back to normoxic condition in a normal culture chamber, and then cell death was measured 18 hours later. […]

SMILES: COc1ccc(C[C@@H](C)[C@@H](C)Cc2ccc(OC)c(OC)c2)cc1OC [M4N, tetra-o-methyl nordihydroguaiaretic acid]
- BNIP3 expression at the transcription level (BNIP3 [1]; LNCaP human prostate cancer cells, internal data not shown): blocks BNIP3 expression
- expression of BNIP3 in various cancer cells (BNIP3 [1]; LNCaP, PC3, MCF-7, HepG2 cells, previously found): reduced the expression of BNIP3
- BNIP3 expression (western blotting) (BNIP3 [2]): suppressed
- TUNEL-positive cell death induced by hypoxia (HL-1 mouse heart cells [3]): reduced the cell death induced by hypoxia
- toxicity and safety in clinical trials [4]: very nontoxic and safe drug
- UCN-01-mediated cell death, Trypan blue exclusion assay (HL-1 mouse heart cells [5]): reduced UCN-01-mediated cell death
- mPTP openings induced by hypoxia [6]: suppressed mPTP openings induced by hypoxia
- mitochondrial membrane potential (ΔΨm) (LNCAP cells): induce hyperpolarization of ΔΨm
- mitochondrial metabolism (LNCAP cells): suppress mitochondrial metabolism
- cell death induced by hypoxia, Trypan blue exclusion assay (HL-1 mouse heart cells [7]; either 6 hour hypoxia with additional 18 hour normoxia or 24 hour hypoxia): reduced the cell death induced by hypoxia
- cell death under normoxic condition, Trypan blue exclusion assay (HL-1 mouse heart cells [7]; normoxic condition, compared with the control): reduced cell death compared with the control
